Among the data in patent publication US7105679B2, “Heteroatom containing tetracyclic derivatives as selective estrogen receptor modulators” (priority 2001, dated 2006) are IC50 and EC50 values, retold here.

pEC50, pIC50: −log10 of the molar value. “And” between values parts separate entries of the source, which are not always exact repeats. Equal values may be shown once. Read-outs that look alike come from different tables or passages of the source.

The target in test [1] is T1, human estrogen receptor α (Homo sapiens, UniProt P03372).
T1 construct: purchased Panvera
T1 sequence (P03372 1-595): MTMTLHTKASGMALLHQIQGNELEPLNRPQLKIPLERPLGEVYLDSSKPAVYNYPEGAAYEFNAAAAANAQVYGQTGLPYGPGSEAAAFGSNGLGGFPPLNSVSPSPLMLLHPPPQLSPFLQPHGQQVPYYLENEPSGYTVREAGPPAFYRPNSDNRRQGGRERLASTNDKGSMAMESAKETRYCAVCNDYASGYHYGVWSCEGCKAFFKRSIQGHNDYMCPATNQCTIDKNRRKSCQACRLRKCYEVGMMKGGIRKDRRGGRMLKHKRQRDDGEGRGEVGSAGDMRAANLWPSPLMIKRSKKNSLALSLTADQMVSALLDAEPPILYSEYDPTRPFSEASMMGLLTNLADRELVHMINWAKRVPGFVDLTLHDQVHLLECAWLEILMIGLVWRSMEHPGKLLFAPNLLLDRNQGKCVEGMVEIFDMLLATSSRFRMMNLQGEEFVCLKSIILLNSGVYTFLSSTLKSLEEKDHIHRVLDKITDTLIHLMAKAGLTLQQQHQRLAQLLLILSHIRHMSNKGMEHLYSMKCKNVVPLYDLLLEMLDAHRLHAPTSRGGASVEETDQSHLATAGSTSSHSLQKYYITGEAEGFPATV
Kind of test: Estrogen Receptor α Flash Plate Assay (binding of radiolabeled estrogen). The conditions noted are these: flash plate binding, 0.5 nM radiolabeled estrogen; number in brackets = No. of determinations; NA = no detected activity at test concentration; read-out: Estrogen Receptor α in μM (No.). Here is the method: This assay monitors binding of radiolabeled estrogen to the estrogen receptor. It is performed on a BioMek 2000 (Beckman). Plates are read in a scintillation counter (Packard TopCount), with decreased counts an indication of binding of a compound to the receptor.
The plate was sealed and incubated at 4° C. overnight.
On day two, each well was washed three times with 200 μL PBS, pH 7.2, at room temperature. To each well was then added 98 μL radiolabeled estrogen (0.5 nM, which equals 6 nCi for a 120 Ci/mmol batch, Amersham), diluted in ESB and 5 mM dithiothreitol (DTT). To individual wells were then added 2.5 μL test compound diluted in 30% (v/v) dimethyl sulfoxide/50 mM HEPES, pH 7.5. The wells were mixed three times by aspiration, the plate sealed and incubated at room temperature for one hour. The wells were then counted for 1 min in a TopCount scintillation counter (Packard).

In another test the target is T2, hER-β (Homo sapiens, UniProt Q92731).
T2 construct: purchased Panvera
T2 sequence (Q92731 whole entry): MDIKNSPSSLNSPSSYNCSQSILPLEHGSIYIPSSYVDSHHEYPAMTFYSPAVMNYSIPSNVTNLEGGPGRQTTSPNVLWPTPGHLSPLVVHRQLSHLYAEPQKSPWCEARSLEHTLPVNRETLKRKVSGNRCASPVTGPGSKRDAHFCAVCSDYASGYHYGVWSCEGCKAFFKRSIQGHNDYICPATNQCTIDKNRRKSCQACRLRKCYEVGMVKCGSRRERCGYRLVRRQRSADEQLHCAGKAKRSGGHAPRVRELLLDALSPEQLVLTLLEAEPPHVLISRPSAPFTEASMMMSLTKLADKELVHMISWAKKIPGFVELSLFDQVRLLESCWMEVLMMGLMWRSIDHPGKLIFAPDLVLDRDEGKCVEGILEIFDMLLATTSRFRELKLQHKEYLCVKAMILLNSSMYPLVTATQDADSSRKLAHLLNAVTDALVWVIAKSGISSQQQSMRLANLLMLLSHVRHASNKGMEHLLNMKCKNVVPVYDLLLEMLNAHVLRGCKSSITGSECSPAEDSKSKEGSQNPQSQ
As to the kind of experiment: Estrogen Receptor β Fluorescence Polarization Assay (binding of Fluormone ES2). The conditions noted are these: for IC50: fluorescence polarization binding, Fluormone ES2, number in brackets = No. of determinations, NA = no detected activity at test concentration, read-out: Estrogen Receptor β in μM (No.). The source says:
This assay monitors binding of a fluorescent analog of estrogen (Fluormone ES2, Panvera) to the estrogen receptor. Plates are read in a fluorometer that can be set to polarization mode. A decrease in […] relative to vehicle control is an indication of binding of a compound to the receptor.
It is crucial to avoid introduction of air bubbles into the reaction in each well of the 96 well plate throughout this procedure. (Bubbles on the surface of the reaction disrupt light flow, affecting the polarization reading.) However, it is also crucial to effectively mix the reaction components upon addition to the well.
On ice, a 2× standard mixture of Assay Buffer (Panvera), 10 nM DTT and 40 nM ES2 was prepared. On ice, a 2× reaction mixture of Assay Buffer (Panvera), and 20 nM hER-β (Panvera) and 40 nM ES2 was also prepared.
Dilutions of test compound were prepared in 30% (v/v) dimethyl sulfoxide/50 mM HEPES, pH 7.5. At this point, the dilutions were 40× the final required concentration.
The standard mixture at 50 μL was then added to each well. The reaction mixture at 48 μL was added to all wells. The compound dilution at 2.5 μL was added to the appropriate wells. The reaction mixtures were mixed using a manual pipette, a roll of aluminum foil adhesive cover was placed on the plate and the plate incubated at room temperature for 1 hour.
A general note: In fluorescence polarisation assays a small probe gives low polarisation when free and higher when bound to something large.

The next test relates to MCF-7 cells. Kind of test: MCF-7 Cell Proliferation Assay (14C-thymidine, agonist and antagonist mode). The conditions noted are these: number in brackets = number of tests, NA = no detected activity at test concentration. The format is cell-based. How it is done: This assay was run according to the procedure described by Welshons, et al., (Breast Cancer Res. Treat., 1987, 10(2), 169-75), with minor modification.
Briefly, MCF-7 cells (from Dr. C. Jordan, Northwestern University) were maintained in RPMI 1640 phenol red free medium (Gibco) in 10% FBS (Hyclone), supplemented with bovine insulin and non-essential amino acid (Sigma). The cells were initially treated with 4-hydoxyltamoxifen (10^−8 M) and let stand at 37° C. for 24 hours. Following this incubation with tamoxifen, the cells were treated with compounds at various concentrations.
Compounds to be tested in the agonist mode were added to the culture media at varying concentrations. Compounds to be treated in the antagonist mode were prepared similarly, and 10 nM 17β-estradiol was also added to the culture media. The cells were incubated for 24 hours at 37° C. Following this incubation, 0.1 μCi of ^14C-thymidine (56 mCi/mmol, Amersham) was added to the culture media and the cells were incubated for an additional 24 hours at 37° C. The cells were then washed twice with Hank's buffered salt solution (HBSS) (Gibco) and counted with a scintillation counter. The increase in the ^14C-thymidine in the compound treated cells relative to the vehicle control cells were reported as percent increase in cell proliferation.

The test system of another test is Ishikawa cells. Kind of test: Alkaline Phosphatase Assay in Human Endometrial Ishikawa Cells (agonist and antagonist mode). Format: cell-based. The conditions noted are these: number in brackets = number of tests, NA = no detected activity at test concentration; for pEC50: agonist mode; for pIC50: antagonist mode with 10 nM 17β-estradiol. How it is done: This assay was run according to the procedure described by Albert et a., Cancer Res, […], 50(11), 330-6-10, with minor modification.
Ishikawa cells (from ATCC) were maintained in DMEM/F12 (1:1) phenol red free medium (Gibco) supplemented with 10% calf serum (Hyclone). 24 hours prior to testing, the medium was changed to DMEM/F12 (1:1) phenol red free containing 2% calf serum.
Compounds to be tested in the agonist mode were added to the culture media at varying concentrations. Compounds to be treated in the antagonist mode were prepared similarly, and 10 nM 17β-estradiol was also added to the culture media. The cells were then incubated at 37° C. for 3 days. On the fourth day, the media was remove, 1 volume of 1× Dilution Buffer (Clontech) was added to the well followed by addition of 1 volume of Assay Buffer (Clontech). The cells were then incubated at room temperature for 5 minutes. […] The cells were incubated at room temperature for 10 minutes and then quantified on a luminometer. The increase of chemiluminescence over vehicle control was used to calculate the increase in alkaline phosphatase activity.

[2] abbreviates: Homo sapiens, MCF7, agonist mode.
Where [3] appears, read: Homo sapiens, MCF7, antagonist mode with 10 nM 17β-estradiol.
Setting [4] is: antagonist mode with 10 nM 17β-estradiol.

On to `COc1ccc2c(c1)OCCC1=C2C(c2ccc(OCCN3CCCCC3)cc2)Oc2cc(O)ccc21` (single isomer, unassigned) [Compound 301, 2-Methoxy-5R*-(+)-[4-(2-piperidin-1-yl-ethoxy)-phenyl]-11,12-dihydro-5H-6,13-dioxa-benzo[3,4]cyclohepta[1,2-a]naphthalen-8-ol], for which the IC50 in test [1] stood at 0.0041 µM; on hER-β it was 0.189 µM.

As for `Oc1ccc2c(c1)O[C@@H](c1ccc(OCCN3CCCCC3)cc1)C1=C2COc2cc(O)ccc21` (stereo in doubt) [Compound 15, 5S*-(+)-[4-(2-Piperidin-1-yl-ethoxy)-phenyl]-5,11-dihydro-chromeno[4,3-c]chromene-2,8-diol], the IC50 on hER-β is 0.017 µM and 0.028 µM. For the same molecule, the pEC50 – broadly, the EC50 on a negative log10 scale, so that one unit is a factor of ten – in the test with MCF-7 cells (agonist mode) is below 5.00. In addition, in the test on Ishikawa cells, the negative-log EC50 (pEC50) is below 5.00 and the pIC50 (in general, the negative decadic logarithm of the IC50, by convention in mol/L) is 6.95.

On to `CC(C)(C)C(=O)Oc1ccc2c(c1)OC(c1ccc(OCCN3CCCCC3)cc1)C1=C2C(O)Oc2cc(OC(=O)C(C)(C)C)ccc21` (stereo not drawn) [Compound 28], for which the IC50 in test [1] is 0.14 µM; on hER-β it was 6.25 µM.

Consider `Oc1ccc2c(c1)OC(c1ccccc1)C1=C2COc2cc(O)ccc21` (stereo not drawn) [Compound 6, 5-Phenyl-5,11-dihydro-chromeno[4,3-c]chromene-2,8-diol], for which the negative logarithm of the IC50 (pIC50) was 7.80 at hER-β, below 5.00 in the test on MCF-7 cells (setting [3]) and below 5.00 with Ishikawa cells (Homo sapiens). Also, the pEC50 in the test with MCF-7 cells (setting [2]) was 7.01; in the test on Ishikawa cells (Homo sapiens), 7.48.

Consider `Oc1ccc2c(c1)OC(c1ccc(OCCN3CCCC3)cc1)C1=C2COc2cc(O)ccc21` (stereo not drawn) [Compound 11, 5-[4-(2-Pyrrolidin-1-yl-ethoxy)-phenyl]-5,11-dihydrochromeno[4,3-c]chromene-2,8-diol], for which the negative logarithm of the IC50 (pIC50) at hER-β was 6.15; in the test on MCF-7 cells (setting [3]) it was 6.61; with Ishikawa cells (Homo sapiens), 7.10. Further, in the test with MCF-7 cells (setting [2]), the pEC50 is below 5.00.

Regarding `CC1(c2ccc(OCCN3CCCCC3)cc2)Oc2cc(O)ccc2C2=C1c1ccc(O)cc1OC2` (stereo not drawn) [Compound 29], the IC50 is 0.004 µM in test [1] and 0.017 µM on hER-β.

With `COc1ccc2c(c1)OC(c1ccc(OCCN3CCCCC3)cc1)C1=C2CCOc2cc(O)ccc21` (single isomer, unassigned) [Compound 302, 8-Methoxy-5R*-(+)-[4-(2-piperidin-1-yl-ethoxy)-phenyl]-11,12-dihydro-5H-6,13-dioxa-benzo[3,4]cyclohepta[1,2-a]naphthalen-2-ol], the IC50 in test [1] amounted to 0.0116 µM; on hER-β it was 0.355 µM.

Regarding `Oc1ccc2c(c1)OC(c1ccc(OCCN3CCOCC3)cc1)C1=C2COc2cc(O)ccc21` (stereo not drawn) [Compound 13, 5-[4-(2-Morphlin-4-yl-ethoxy)-phenyl]-5,11-dihydrochromeno[4,3-c]chromene-2,8-diol], the pIC50 on hER-β is 7.59; in the test on MCF-7 cells (setting [3]), 5.85; with Ishikawa cells (Homo sapiens) it was 6.64. Besides, the negative logarithm of the EC50 (pEC50) in the test with MCF-7 cells (setting [2]) and with Ishikawa cells (Homo sapiens) was below 5.00 in each case.

Consider `CC(C)N(CCOc1ccc(C2Oc3cc(O)ccc3C3=C2c2ccc(O)cc2OCC3)cc1)C(C)C` (single isomer, unassigned) [Compound 167], for which the IC50 in test [1] was determined as 0.007 µM. Further, the negative logarithm of the IC50 (pIC50) in the test on MCF-7 cells (setting [4]) is 6.37; in the test on Ishikawa cells it was 7.46.

Regarding `Oc1ccc2c(c1)OC(c1ccc(OCCN3CCCCCC3)cc1)C1=C2COc2cc(O)ccc21` (stereo not drawn) [Compound 17, 5-[4-(2-Azepan-1-yl-ethoxy)-phenyl]-5,11-dihydrochromeno[4,3-c]chromene-2,8-diol], the figures for the pIC50 at hER-β, with MCF-7 cells (setting [3]) and with Ishikawa cells (Homo sapiens) were 7.51, 5.45 and 6.29, respectively. Further, the pEC50 in the test on MCF-7 cells (setting [2]) and in the test on Ishikawa cells (Homo sapiens) was below 5.00 each time.

On to `Oc1ccc2c(c1)OCCC1=C2C(c2ccc(OCCN3CCCCCC3)cc2)Oc2cc(F)ccc21` (single isomer, unassigned) [Compound 178], for which the IC50 in test [1] was 0.0064 µM and 0.0076 µM. The pIC50 in the test with MCF-7 cells (setting [4]) is 5.83; in the test with Ishikawa cells, 6.90.

For the molecule `CC(C)(C)C(=O)Oc1ccc2c(c1)OC(c1ccc(OCCN3CCCCC3)cc1)C1=C2COc2cc(OC(=O)C(C)(C)C)ccc21` (single isomer, unassigned) [Compound 25], in test [1], the IC50 is 1.2 µM. The negative logarithm of the EC50 (pEC50) in the test with MCF-7 cells (agonist mode) and in the test with Ishikawa cells was below 5.00 in each case. The pIC50 was 5.86 with MCF-7 cells (setting [4]) and 6.63 with Ishikawa cells.

For `COc1ccc2c(c1)OCC1=C2[C@H](c2ccc(OCCN3CCCCC3)cc2)Oc2cc(O)ccc21` (single isomer, unassigned) [Compound 181, 8-Methoxy-11S*(−)-[4-(2-piperidin-1-yl-ethoxy)-phenyl]-5,11-dihydro-chromeno[4,3-c]chromen-2-ol], in test [1], the IC50 worked out at 0.0011 µM. For the same molecule, the pIC50 with MCF-7 cells (setting [3]) was 5.87; with Ishikawa cells (Homo sapiens), 7.47.

On to `COC(=O)COc1ccc(C2Oc3cc(O)ccc3C3=C2c2ccc(O)cc2OCC3)cc1` (racemic) [Compound 190], for which, in test [1], the IC50 was found to be 0.0089 µM. For the same molecule, the negative-log IC50 (pIC50) with MCF-7 cells (setting [4]) and in the test with Ishikawa cells was below 5.00 in each case.

Regarding `Oc1ccc2c(c1)OCCC1=C2C(c2ccc(OCCN3CCCCCC3)cc2)Oc2ccccc21` (single isomer, unassigned) [Compound 152], the IC50 in test [1] was 0.0086 µM. Further, the negative logarithm of the IC50 (pIC50) in the test with MCF-7 cells (setting [4]) is 5.58; with Ishikawa cells, 6.49.
